Experimental data from patent publication US10495642B2, “Inhibitors of proteins specific for the secretome of a chondrocyte for use in the treatment of breast cancer metastasis” (ALBERT-LUDWIGS-UNIVERSITÄT FREIBURG, priority 2013, dated 2019).

Tests used:
[1] = tested on: human pancreatic cancer, malignant melanoma, papillary thyroid cancer, breast cancer, colon cancer, and prostate cancer cells; details: human cancer cells with high basal TLR3 and Wnt5a; cited from earlier work
4T1 cells = details: cited from earlier work
[2] = tested on: MCF-7 and MDA-MB-231 as well as 4T1 cancer cell lines; details: addition of CXCL5, cited from earlier work
[3] = target: T1, recombinant human CXCL5/ENA-78 (Homo sapiens, UniProt P42830); assay: Phage display identification of CXCL5 binding peptides; details: region of CXCL5 of FIGS. 7 and 8
T1 sequence (P42830 37-114): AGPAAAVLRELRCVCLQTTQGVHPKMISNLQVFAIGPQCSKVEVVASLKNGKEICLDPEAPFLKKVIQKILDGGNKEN
Source text: Phage display: 12 amino acid binding peptides towards CXCL5 were identified using a commercial phage display system from […].

MDA-MB-231 cells = assay: Transwell migration of MDA-MB-231 cells towards chondrocyte conditioned media; type: cell-based, human; details: chondrocyte conditioned media as chemoattractant
Protocol: Cell differentiation: Primary human monocytes, articular chondrocytes, and adipose tissue derived stromal cells were isolated from healthy donors and differentiated into osteoclasts (OC), articular chondrocytes (AC) and osteoblasts (OB) respectively. Cell lines: MDA-MB-231 (MDA), a metastatic, and MCF7A, an epithelial like breast cancer cell line, were used in this study.
Serum free conditioned media: After differentiation, cells were washed 2 times with PBS and incubated with DMEM for 24 hours. After 24 hours, conditioned media was harvested and passed through a 0.45 μm filter.
Migration: MDA-MB-231 cells were serum-starved for 24 hours before testing of the migration. Migration media was plated in the bottom of the well and a transwell insert (8 μm pores) was placed on top. 25.000 cells were seed on top of the filter. After 15 hours, the filters were washed and non-migrated cells were removed. Migrated cells were stained with H&E and counted under a microscope. Numbers were obtained as the average number of 5 random fields per filter.

Compound: Cn1c(-c2ccccc2)c[nH]c1=S [Peptide C10, 5-phenylmethimazole]
- cell growth and migration [1]: suppression of cell growth and migration

Compound: CXCL5: small cytokine of the CXC chemokine family, epithelial-derived neutrophil-activating peptide 78
- tumor nodules in livers, lungs and intestines versus control group (4T1 cells; 4T1 mouse model): more numerous and larger
- metastasis of 4T1 cells in mice (4T1 cells; CXCL5 0.5 mg/kg): increased the metastasis
- migration and invasiveness ([2]; MCF-7, MDA-MB-231 and 4T1 cancer cell lines): enhance the migration and invasiveness
- cell proliferation ([2]; MCF-7 or MDA-MB-231 cancer cells): did not increase cell proliferation

Compound: H-IGKVDSNSVSHA-NH2 [Peptide 2]
- binding to the pocket region of CXCL5 [3]: bind to said region
- migration of MDA-MB-231 cells in the presence of the chondrocyte secretome (MDA-MB-231 cells): reduces migration

Compound: H-Pro-Val-Trp-Ala-his-leu-Asn-Pro-Pro-Trp-Leu-Ala-NH2 [Peptide 1]
- binding to the pocket region of CXCL5 [3]: bind to said region
- migration of MDA-MB-231 cells in the presence of the chondrocyte secretome (MDA-MB-231 cells): reduces migration
